Laboratory results published in patent US11566057B2, “Long-acting co-agonists of the glucagon and GLP-1 receptors” (Merck Sharp & Dohme Corp., priority 2017, dated 2023).
Where two headings read alike, the source gives them in different places. Numbered stars: 1 amine (or outer) side, 2 acyl side, 3 side chain; on linkers, the order of the positions; unused ones are H or OH. Square brackets hold non-standard residues; d marks the D form. Side chains are listed from the residue outwards. Peptide text beside a SMILES is read from it. * marks the point of attachment. C20 diacid = O=C(O)CCCCCCCCCCCCCCCCCCC(=O)*; Phe(4-CH2NH2) = NCc1ccc(C[C@H](N)C(=O)O)cc1; C18 diacid = O=C(O)CCCCCCCCCCCCCCCCC(=O)*; C16 diacid = O=C(O)CCCCCCCCCCCCCCC(=O)*; γGlu = O=C(O)[C@H](CCC(=O)[*:2])N[*:1]; Met(O2) = CS(=O)(=O)CC[C@H](N)C(=O)O; αMeD = C[C@](N)(CC(=O)O)C(=O)O; αMeS = C[C@](N)(CO)C(=O)O; AEEA = NCCOCCOCC(=O)O; Aib = CC(C)(N)C(=O)O

Assays:
human GCGR = target: T1, human GCGR (Homo sapiens, UniProt P47871); test: cAMP activity assay at the Glucagon receptor (GCGR); type: cell-based; settings: for hGCGR/hGLP1R (hTone): ratio of GCGR EC50 to GLP1R EC50
T1 construct: expressed in transfected cells; growth medium holds Blasticidin and Hygromycin
T1 sequence (P47871 26-477): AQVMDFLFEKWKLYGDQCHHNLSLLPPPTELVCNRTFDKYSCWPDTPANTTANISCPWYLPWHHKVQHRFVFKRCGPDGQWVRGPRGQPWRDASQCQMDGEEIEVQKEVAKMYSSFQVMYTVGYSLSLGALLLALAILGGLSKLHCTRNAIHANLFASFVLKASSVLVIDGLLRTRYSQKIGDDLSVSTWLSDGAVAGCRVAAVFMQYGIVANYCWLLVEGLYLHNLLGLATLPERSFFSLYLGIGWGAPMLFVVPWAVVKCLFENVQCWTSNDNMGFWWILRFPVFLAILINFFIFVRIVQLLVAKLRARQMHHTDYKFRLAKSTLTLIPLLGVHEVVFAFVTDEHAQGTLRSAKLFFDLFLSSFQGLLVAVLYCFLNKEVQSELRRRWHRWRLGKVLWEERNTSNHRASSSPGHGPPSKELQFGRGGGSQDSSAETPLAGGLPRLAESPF
Procedure, shortened: (§1)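 Peptides serially diluted from DMSO (10 points) and added to frozen-stock cells bearing human GLP1R (10,000 cells/well) or GCGR (30,000 cells/well), 1 h at RT, dark. EC50 by four-parameter logistic fit of HitHunter cAMPXS luminescence, read following overnight RT incubation.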

human GLP1R = target: T2, human GLP1R (Homo sapiens, UniProt P43220); test: cAMP activity assay at the GLP-1 receptor (GLP1R); type: cell-based
T2 construct: expressed in transfected cells; growth medium holds Blasticidin and Hygromycin
T2 sequence (P43220 24-463): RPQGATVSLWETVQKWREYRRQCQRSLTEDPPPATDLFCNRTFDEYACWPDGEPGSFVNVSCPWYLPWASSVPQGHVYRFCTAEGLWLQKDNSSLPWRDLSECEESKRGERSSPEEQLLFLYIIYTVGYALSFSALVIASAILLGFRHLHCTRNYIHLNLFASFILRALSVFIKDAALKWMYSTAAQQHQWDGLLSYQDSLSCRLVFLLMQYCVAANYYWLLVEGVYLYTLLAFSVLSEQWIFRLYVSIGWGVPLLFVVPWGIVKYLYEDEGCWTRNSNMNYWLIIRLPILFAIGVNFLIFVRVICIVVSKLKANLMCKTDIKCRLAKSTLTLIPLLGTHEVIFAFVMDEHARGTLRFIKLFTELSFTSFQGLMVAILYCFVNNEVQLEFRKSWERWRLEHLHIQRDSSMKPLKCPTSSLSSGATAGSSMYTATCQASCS
Procedure, shortened: as §1

[1] = summary statement: EC50 at each of the glucagon and GLP-1 receptors, read-out: EC50 at the glucagon receptor
[2] = cells expressing human GLP1R, cAMP production, buffer with or without 20% human serum (not stated which), read-out: GLP1R EC50 human
[3] = summary statement: EC50 at each of the glucagon and GLP-1 receptors, read-out: EC50 at the GLP-1 receptor

| SMILES | hGCGR/hGLP1R (hTone) (human GCGR) | EC50 (human GCGR; [1]) | EC50 (human GLP1R; [2]) | EC50 (human GLP1R; [3]) | EC50 (human GCGR; cells expressing human GCGR, cAMP production, buffer with or without 20% human serum (not stated which), read-out: GCGR EC50 human) |
| --- | --- | --- | --- | --- | --- |
| CC(C)C[C@H](NC(=O)[C@H](Cc1ccc(O)cc1)NC(=O)[C@H](CCCCN)NC(=O)[C@H](CO)NC(=O)[C@H](Cc1ccc(O)cc1)NC(=O)[C@H](CC(=O)O)NC(=O)[C@H](CO)NC(=O)[C@@H](NC(=O)[C@H](Cc1ccccc1)NC(=O)[C@@H](NC(=O)CNC(=O)[C@H](CCC(N)=O)NC(=O)C(C)(C)NC(=O)[C@@H](N)Cc1c[nH]cn1)[C@@H](C)O)[C@@H](C)O)C(=O)N[C@@H](CC(=O)O)C(=O)N[C@@H](C)C(=O)N[C@@H](CCCNC(=N)N)C(=O)N[C@@H](C)C(=O)N[C@@H](C)C(=O)N[C@@H](CCCCNC(=O)COCCOCCNC(=O)COCCOCCNC(=O)CC[C@H](NC(=O)CCCCCCCCCCCCCCC(=O)O)C(=O)O)C(=O)N[C@@H](CC(=O)O)C(=O)N[C@@H](Cc1ccccc1)C(=O)N[C@H](C(=O)N[C@@H](CCC(N)=O)C(=O)N[C@@H](Cc1c[nH]c2ccccc12)C(=O)N[C@@H](CC(C)C)C(=O)N[C@@H](CCS(C)(=O)=O)C(=O)N[C@@H](CCC(=O)O)C(=O)N[C@H](C(N)=O)[C@@H](C)O)C(C)C [TP814] (H-H[Aib]QGTFTSDYSKYLDARAAK([AEEA-AEEA-γGlu-C16 diacid])DFVQWL[Met(O2)]ET-NH2; N-terminus assumed) | 2.0 | < 5 nM |  | < 5 nM |  |
| CC(C)C[C@H](NC(=O)[C@H](Cc1ccc(O)cc1)NC(=O)[C@H](CCCCN)NC(=O)[C@H](CO)NC(=O)[C@H](Cc1ccc(O)cc1)NC(=O)[C@H](CC(=O)O)NC(=O)[C@H](CO)NC(=O)[C@@H](NC(=O)[C@H](Cc1ccccc1)NC(=O)[C@@H](NC(=O)CNC(=O)[C@H](CCC(N)=O)NC(=O)[C@](C)(CO)NC(=O)[C@@H](N)Cc1c[nH]cn1)[C@@H](C)O)[C@@H](C)O)C(=O)N[C@@H](CC(=O)O)C(=O)NC(C)(C)C(=O)N[C@@H](CCCNC(=N)N)C(=O)N[C@@H](C)C(=O)N[C@@H](C)C(=O)N[C@@H](CCC(N)=O)C(=O)N[C@@H](CCCCNC(=O)COCCOCCNC(=O)COCCOCCNC(=O)CC[C@H](NC(=O)CCCCCCCCCCCCCCC(=O)O)C(=O)O)C(=O)N[C@@H](Cc1ccccc1)C(=O)N[C@H](C(=O)N[C@@H](CCC(N)=O)C(=O)N[C@@H](Cc1c[nH]c2ccccc12)C(=O)N[C@@H](CC(C)C)C(=O)N[C@@H](CCS(C)(=O)=O)C(=O)N[C@@](C)(CC(=O)O)C(=O)N[C@H](C(N)=O)[C@@H](C)O)C(C)C [TP619] (H-H[αMeS]QGTFTSDYSKYLD[Aib]RAAQK([AEEA-AEEA-γGlu-C16 diacid])FVQWL[Met(O2)][αMeD]T-NH2) | 0.1 | < 5 nM | 0.38 nM | < 5 nM |  |
| CC(C)C[C@H](NC(=O)[C@H](Cc1ccc(O)cc1)NC(=O)[C@H](CCCCN)NC(=O)[C@H](CO)NC(=O)[C@H](Cc1ccc(O)cc1)NC(=O)[C@H](CC(=O)O)NC(=O)[C@H](CO)NC(=O)[C@@H](NC(=O)[C@H](Cc1ccccc1)NC(=O)[C@@H](NC(=O)CNC(=O)[C@H](CCC(N)=O)NC(=O)C(C)(C)NC(=O)[C@@H](N)Cc1c[nH]cn1)[C@@H](C)O)[C@@H](C)O)C(=O)N[C@@H](CC(=O)O)C(=O)N[C@@H](CCC(=O)O)C(=O)N[C@@H](CCCNC(=N)N)C(=O)N[C@@H](C)C(=O)N[C@@H](C)C(=O)N[C@@H](CCCCN)C(=O)N[C@@H](CC(=O)O)C(=O)N[C@@H](Cc1ccccc1)C(=O)N[C@H](C(=O)N[C@@H](CCCCNC(=O)COCCOCCNC(=O)COCCOCCNC(=O)CC[C@H](NC(=O)CCCCCCCCCCCCCCCCC(=O)O)C(=O)O)C(=O)N[C@@H](Cc1c[nH]c2ccccc12)C(=O)N[C@@H](CC(C)C)C(=O)N[C@@H](CCS(C)(=O)=O)C(=O)N[C@@H](CC(=O)O)C(=O)N[C@H](C(N)=O)[C@@H](C)O)C(C)C [TP701] (H-H[Aib]QGTFTSDYSKYLDERAAKDFVK([AEEA-AEEA-γGlu-C18 diacid])WL[Met(O2)]DT-NH2) |  |  | 0.18 nM |  | > 4.9 nM |

Now from value to molecule:

| hGCGR/hGLP1R (hTone) (human GCGR) | EC50 (human GCGR; [1]) | EC50 (human GLP1R; [2]) | EC50 (human GLP1R; [3]) | EC50 (human GCGR; cells expressing human GCGR, cAMP production, buffer with or without 20% human serum (not stated which), read-out: GCGR EC50 human) | SMILES |
| --- | --- | --- | --- | --- | --- |
| 3.6 | < 5 nM | 0.41 nM | < 5 nM |  | CC(C)C[C@H](NC(=O)[C@H](Cc1ccc(O)cc1)NC(=O)[C@H](CCCCN)NC(=O)[C@H](CO)NC(=O)[C@H](Cc1ccc(O)cc1)NC(=O)[C@H](CC(=O)O)NC(=O)[C@H](CO)NC(=O)[C@@H](NC(=O)[C@H](Cc1ccccc1)NC(=O)[C@@H](NC(=O)CNC(=O)[C@H](CCC(N)=O)NC(=O)C(C)(C)NC(=O)[C@@H](N)Cc1c[nH]cn1)[C@@H](C)O)[C@@H](C)O)C(=O)N[C@@H](CC(=O)O)C(=O)N[C@@H](C)C(=O)N[C@@H](CCCNC(=N)N)C(=O)N[C@@H](C)C(=O)N[C@@H](C)C(=O)N[C@@H](CCCCNC(=O)COCCOCCNC(=O)COCCOCCNC(=O)CC[C@H](NC(=O)CCCCCCCCCCCCCCCCC(=O)O)C(=O)O)C(=O)N[C@@H](CC(=O)O)C(=O)N[C@@H](Cc1ccccc1)C(=O)N[C@H](C(=O)N[C@@H](CCC(=O)O)C(=O)N[C@@H](Cc1c[nH]c2ccccc12)C(=O)N[C@@H](CC(C)C)C(=O)N[C@@H](CCS(C)(=O)=O)C(=O)N[C@@H](CCCCN)C(=O)N[C@H](C(N)=O)[C@@H](C)O)C(C)C [TP705] (H-H[Aib]QGTFTSDYSKYLDARAAK([AEEA-AEEA-γGlu-C18 diacid])DFVEWL[Met(O2)]KT-NH2; N-terminus assumed) |
| 0.7 | < 5 nM | 0.19 nM | < 5 nM |  | CC(C)C[C@H](NC(=O)[C@H](Cc1ccc(O)cc1)NC(=O)[C@H](CCCCN)NC(=O)[C@H](CO)NC(=O)[C@H](Cc1ccc(O)cc1)NC(=O)[C@H](CC(=O)O)NC(=O)[C@H](CO)NC(=O)[C@@H](NC(=O)[C@H](Cc1ccccc1)NC(=O)[C@@H](NC(=O)CNC(=O)[C@H](CCC(N)=O)NC(=O)C(C)(C)NC(=O)[C@@H](N)Cc1c[nH]cn1)[C@@H](C)O)[C@@H](C)O)C(=O)N[C@@H](CC(=O)O)C(=O)N[C@@H](C)C(=O)N[C@@H](CCCNC(=N)N)C(=O)N[C@@H](C)C(=O)N[C@@H](C)C(=O)N[C@@H](CCC(N)=O)C(=O)N[C@@H](Cc1ccc(CNC(=O)COCCOCCNC(=O)CC[C@H](NC(=O)CCCCCCCCCCCCCCCCC(=O)O)C(=O)O)cc1)C(=O)N[C@@H](Cc1ccccc1)C(=O)N[C@H](C(=O)N[C@@H](CCC(N)=O)C(=O)N[C@@H](Cc1c[nH]c2ccccc12)C(=O)N[C@@H](CC(C)C)C(=O)N[C@@H](CC(C)C)C(=O)N[C@@H](CC(=O)O)C(=O)N[C@H](C(N)=O)[C@@H](C)O)C(C)C [TP633] (H-H[Aib]QGTFTSDYSKYLDARAAQ[Phe(4-CH2NH2)]([AEEA-γGlu-C18 diacid])FVQWLLDT-NH2; N-terminus assumed) |
|  | < 5 nM |  | < 5 nM |  | CC(C)C[C@H](NC(=O)[C@H](Cc1ccc(O)cc1)NC(=O)[C@H](CCCCN)NC(=O)[C@H](CO)NC(=O)[C@H](Cc1ccc(O)cc1)NC(=O)[C@H](CC(=O)O)NC(=O)[C@H](CO)NC(=O)[C@@H](NC(=O)[C@H](Cc1ccccc1)NC(=O)[C@@H](NC(=O)CNC(=O)[C@H](CCC(N)=O)NC(=O)C(C)(C)NC(=O)[C@@H](N)Cc1c[nH]cn1)[C@@H](C)O)[C@@H](C)O)C(=O)N[C@@H](CC(=O)O)C(=O)N[C@@H](C)C(=O)N[C@@H](CCCNC(=N)N)C(=O)N[C@@H](C)C(=O)N[C@@H](C)C(=O)N[C@@H](CCC(N)=O)C(=O)N[C@@H](CC(=O)O)C(=O)N[C@@H](Cc1ccccc1)C(=O)N[C@H](C(=O)N[C@@H](CCC(N)=O)C(=O)N[C@@H](Cc1c[nH]c2ccccc12)C(=O)N[C@@H](CC(C)C)C(=O)N[C@@H](CCS(C)(=O)=O)C(=O)N[C@@H](Cc1ccc(CNC(=O)COCCOCCNC(=O)COCCOCCNC(=O)CC[C@H](NC(=O)CCCCCCCCCCCCCCCCCCC(=O)O)C(=O)O)cc1)C(=O)N[C@H](C(N)=O)[C@@H](C)O)C(C)C [TP605] (H-H[Aib]QGTFTSDYSKYLDARAAQDFVQWL[Met(O2)][Phe(4-CH2NH2)]([AEEA-AEEA-γGlu-C20 diacid])T-NH2) |
| 0.7 | < 5 nM |  | < 5 nM |  | CC(C)C[C@H](NC(=O)[C@H](Cc1c[nH]c2ccccc12)NC(=O)[C@H](CCCCNC(=O)COCCOCCNC(=O)COCCOCCNC(=O)CC[C@H](NC(=O)CCCCCCCCCCCCCCC(=O)O)C(=O)O)NC(=O)[C@@H](NC(=O)[C@H](Cc1ccccc1)NC(=O)[C@H](CC(=O)O)NC(=O)[C@H](CCC(N)=O)NC(=O)[C@H](C)NC(=O)[C@H](C)NC(=O)[C@H](CCCNC(=N)N)NC(=O)C(C)(C)NC(=O)[C@H](CC(=O)O)NC(=O)[C@H](CC(C)C)NC(=O)[C@H](Cc1ccc(O)cc1)NC(=O)[C@H](CCCCN)NC(=O)[C@H](CO)NC(=O)[C@H](Cc1ccc(O)cc1)NC(=O)[C@H](CC(=O)O)NC(=O)[C@H](CO)NC(=O)[C@@H](NC(=O)[C@H](Cc1ccccc1)NC(=O)[C@@H](NC(=O)CNC(=O)[C@H](CCC(N)=O)NC(=O)C(C)(C)NC(=O)[C@@H](N)Cc1c[nH]cn1)[C@@H](C)O)[C@@H](C)O)C(C)C)C(=O)N[C@@H](CCS(C)(=O)=O)C(=O)N[C@@H](CCC(=O)O)C(=O)N[C@H](C(N)=O)[C@@H](C)O [TP815] (H-H[Aib]QGTFTSDYSKYLD[Aib]RAAQDFVK([AEEA-AEEA-γGlu-C16 diacid])WL[Met(O2)]ET-NH2) |
